The values below are quoted from earlier work in patent US6488917B2, “Optical brighteners as bleaching agents” (L'Oreal, priority 1998, dated 2002).

This series relates to melanocytes. Conditions: known from the prior art.

For `Oc1ccc(O)cc1` [hydroquinone], the cytotoxicity towards melanocytes entry is given as “known for its cytotoxicity towards melanocytes”.
